Measurements from paper PMC10793205, “Differential transmetallation of complexes of the anti-cancer thiosemicarbazone, Dp4e4mT: effects on anti-proliferative efficacy, redox activity, oxy-myoglobin and oxy-hemoglobin oxidation” (Chemical Science, 2023).

Legend:
[1] = tested on: H2DCF; test: Redox activity: H2DCF oxidation to DCF (cell-free, L-cysteine/H2O2); assay type: biochemical; settings: for DCF fluorescence (H2DCF oxidation) of agent alone: 10 μM, pH 7.4 and pH 5, no added CuCl2
Method: Redox activity in cells was examined using an established in vitro method examining 2′,7′-dichlorodihydrofluorescein (H2DCF) oxidation to fluorescent 2′,7′-dichlorofluorescein (DCF) at cytosolic pH (pH 7.4 using HBSS buffer) relative to lysosomal pH (pH 5; acetate buffer; Fig. 5).[25,26,28,42,46] To these buffers containing the complexes, L-cysteine (100 μM) was added as a reducing agent, followed by H2DCF (5 μM). Then, hydrogen peroxide (H2O2; 100 μM) was added to initiate hydroxyl radical generation. Both [Cu(DpC)Cl2] and [Cu(DpC)2] were used as positive controls due to their documented redox activity.[28,42] In contrast, the ligand, DpC, was implemented as a negative control, as it is redox inert.[28,42] As an additional control, the established Cu chelator, tetrathiomolybdate (TM), was utilized to remove Cu from the thiosemicarbazone complexes to indicate its role in their redox activity.[27,28,42] Additionally, UV-vis spectroscopy (300–700 nm) of the same solution for each complex was also performed to understand both the oxidation of H2DCF and the formation of fluorescent DCF upon excitation at 503 nm (Fig. S20A–F and S21A–F ^†). […]
ROS Generation Analysis with H 2DCF-DA
The generation of reactive oxygen species (ROS) was assessed by examining the oxidation of H2DCF.2, 8, 13, 14 Solutions containing CuCl2, TM, DpC, Dp4e4mT, [Fe(DpC)2]+, [Cu(DpC)Cl2], [Cu(DpC)2] and the Dp4e4mT complexes were prepared at a concentration of 10 µM in either HBSS (pH 7.4) or 150 mM acetate buffer (pH 5) to simulate the conditions of the cytosol and lysosome, respectively.2, 8, 14, 15 The H2DCF was prepared by deacetylation of DCFH-DA (Sigma-Aldrich) through alkaline hydrolysis using NaOH. 16
In these prepared solutions, L-cysteine (100 µM) was added as a reducing agent and then H2DCF (5 µM) added. The initiation of hydroxyl radical generation was achieved by the addition of hydrogen peroxide (H2O2; 100 µM). As a comparative benchmark, HBSS or acetate buffer containing L-cysteine, H2DCF, and H2O2, but lacking ligands or metal complexes, was employed as a control. Fluorescence measurements were carried out using a CLARIOstar Plus microplate reader (BMG LABTECH, Australia) with an excitation wavelength of 485 nm and an emission wavelength of 530 nm. 8, 14

[2] = tested on: AsPC-1 cells; test: MTT cellular proliferation assay, AsPC-1 pancreatic adenocarcinoma cells; assay type: cell-based, human; settings: for IC50: 37 °C, MTT, mean ± SD (3 experiments); for Therapeutic index AsPC-1: IC50 of MRC-5 cells/IC50 of AsPC-1 cells, 72 h/37 °C
Method: (§1) The anti-proliferative activity of Dp4e4mT relative to its complexes with Fe(III), Co(III), Ni(II), Cu(II), Zn(II), Ga(III), and Pd(II) was examined over incubation periods of 24-, 48-, and 72 h/37 °C (Table 2). These studies were performed using human SK-N-MC neuroepithelioma and AsPC-1 pancreatic adenocarcinoma cells that we have previously examined to assay other ligands.[15,28,43] […]
(§2) All cell lines were procured from the American Type Culture Collection (ATCC; Manassas, VA). The SK-N-MC neuroepithelioma cell line and the mortal MRC-5 fibroblasts were cultured in minimum essential medium (Sigma-Aldrich), while the AsPC-1 cell line was cultured in Roswell Park Memorial Institute 1640 medium (Thermo Fisher Scientific, MA, USA). Both media were supplemented with 10% fetal calf serum, non-essential amino acids (1 mM), sodium pyruvate (1 mM), L-glutamine (2 mM), penicillin (100 U/mL), streptomycin (100 U/mL), and Fungizone (0.5 µg/mL). Cells were maintained at 37 °C in an incubator under a humidified atmosphere with 5% CO 2, following established protocols. 11 Cellular Proliferation Assay
(§3) Cellular proliferation was evaluated through the established 3-(4,5-dimethylthiazol-2-yl)-2,5-diphenyltetrazolium bromide (MTT) proliferation assay, validated by viable cell counts.12 […]
(§4) Ligands and complexes were dissolved in DMSO to make a stock solution of 10 mM, subsequently diluted in culture media. For cell culture experiments, the DMSO's maximum concentration remained below 0.5% (v/v), with no discernible impact on proliferation.12 MTT […]
(§5) Trypan blue staining.12 Analysis of the data was executed employing MARS Data Analysis Software (BMG LabTech; version 3.30). The concentration of agents necessary to inhibit cellular proliferation by 50% (IC 50) was then calculated. […]

[3] = tested on: SK-N-MC cells; test: MTT cellular proliferation assay, SK-N-MC neuroepithelioma cells; assay type: cell-based, human; settings: for IC50: SK-N-MC, 37 °C, MTT, mean ± SD (3 experiments); for Therapeutic index SK-N-MC: IC50 of MRC-5 cells/IC50 of SK-N-MC cells, 72 h/37 °C
Method: as §1, §2, §3, §4, §5

[4] = Transmetallation kinetics with FeCl3 in DMSO (time-resolved UV-vis); assay type: physicochemical; settings: 10-fold excess of FeCl3 in DMSO, 25 °C
Method: The capacity of the Fe(III), Ni(II), Co(III), Zn(II), Ga(III), and Pd(II) complexes of Dp4e4mT to transmetallate with Cu(II) and/or Fe(III) to result in redox active Cu(II) and Fe(III) complexes could be critical in understanding their anti-proliferative efficacy, redox activity, and ability to oxidize oxy-Mb and oxy-Hb. To examine this, LC-MS spectrometry was performed in DMSO after the addition of 1 equivalent of FeCl3 or Cu(OAc)2 and the solutions then incubated for 24 h/20 °C due to slow reaction kinetics. This solution was then diluted 1 : 1 in methanol and LC-MS performed using a mobile phase consisting of 90% MeOH, 9.9% water, and 0.1% formic acid (Fig. S2–S9 ^†). These investigations were supported by EPR studies in DMSO after the addition of 1 equivalent of FeCl3 or Cu(OAc)2 incubated under the same conditions (Fig. 3A–G). As a third method to investigate transmetallation, kinetic studies using time-resolved UV-vis spectroscopy were performed under pseudo-first order conditions with a 10-fold excess of FeCl3 or Cu(OAc)2 in DMSO (Fig. S11–S16 ^†). The pseudo-first order rate constants were calculated from the time-dependent UV-vis spectroscopy data (at all wavelengths) with Reactlab Kinetics[49] and collected in Table S2. ^† […]
Time-dependent UV-Vis absorption spectra were measured on an Agilent 8453 diode array UV−Vis spectrophotometer, equipped with a thermostatted (± 0.1 °C) multicell transport cooled by a Huber Ministat 230 recirculating cooling bath. Spectral analysis was carried out with Reactlab Kinetics. 10 […]
Table S2. Observed pseudo first order rate constants (k obs, s−1) for reactions of each Dp4e4mT complex with a 10-fold excess of Cu(OAc) 2 or FeCl 3 in DMSO or water (pH 7.4 or 5.0) at 25 °C. […]
[Co(Dp4e4mT)2]+ No reaction No reaction No reaction No reaction […]
a Reaction could not be deciphered by UV-Vis spectroscopy; bchlorido ligand hydrolysis

[5] = Homo sapiens, ASPC1, AsPC-1, 24 h
[6] = Homo sapiens, ASPC1, AsPC-1, 48 h
[7] = Homo sapiens, ASPC1, AsPC-1, 72 h

Structure (SMILES) | DCF fluorescence (H2DCF oxidation) of agent alone [1] | IC50 [2, 5] [nM] | IC50 [2, 6] [nM] | IC50 [2, 7] [nM] | Therapeutic index AsPC-1 [2] | IC50 ([3]; Homo sapiens, 24 h) [nM] | IC50 ([3]; Homo sapiens, 48 h) [nM] | IC50 ([3]; Homo sapiens, 72 h) [nM] | Therapeutic index SK-N-MC [3] | DCF fluorescence (H2DCF oxidation) after addition of CuCl2 ([1]; 10 μM complex + CuCl2, pH 7.4 and pH 5) | IC50 ([2]; AsPC-1, 24 h) [nM] | IC50 ([2]; AsPC-1, 48 h) [nM] | IC50 ([2]; AsPC-1, 72 h) [nM] | Observed pseudo first order rate constant kobs, FeCl3 [4] | IC50 ([3]; 24 h) [nM] | IC50 ([3]; 48 h) [nM] | IC50 ([3]; 72 h) [nM]
CCN(C)C(=S)NN=C(c1ccccn1)c1ccccn1 [Dp4e4mT, di-2-pyridylketone-4-ethyl-4-methyl-3-thiosemicarbazone] | did not significantly (p > 0.05) increase DCF fluorescence | 3780 ± 91 | 45 ± 8 | 9 ± 2 | 120 | > 25000 | 43 ± 6 | 6 ± 1 | 301 |  |  |  |  |  |  |  | 
CN(C)C(=S)NN=C(c1ccccn1)c1ccccn1 [Dp44mT, di-2-pyridylketone 4,4-dimethyl-3-thiosemicarbazone, reference compound] |  | 4640 ± 71 | 42 ± 6 | 15 ± 3 | 71 | > 25000 | 43 ± 6 | 6 ± 1 | 152 |  |  |  |  |  |  |  | 
CN(C(=S)NN=C(c1ccccn1)c1ccccn1)C1CCCCC1 [DpC, di-2-pyridylketone 4-cyclohexyl-4-methyl-3-thiosemicarbazone, reference compound] | did not significantly (p > 0.05) increase DCF fluorescence | 4921 ± 34 | 87 ± 34 | 18 ± 7 | 165 | 22300 ± 83 | 88 ± 7 | 28 ± 9 | 149 |  |  |  |  |  |  |  | 
CCN(C)C([S-])=NN=C(c1ccccn1)c1ccccn1.CCN(C)C([S-])=NN=C(c1ccccn1)c1ccccn1.[Co+3] [[Co(Dp4e4mT)2]^+] |  |  |  |  | 2 |  |  |  | 4 | not significantly (p > 0.05) different to CuCl2 alone | 9522 ± 91 | 2680 ± 78 | 1570 ± 257 | No reaction | 5498 ± 4 | 1470 ± 61 | 818 ± 51
